Test results from ChEMBL document CHEMBL5500336, “Recent advances in developing modified C14 side chain pleuromutilins as novel antibacterial agents” (Eur J Med Chem, 2024).
Values after ≈ are worked out from the molar mass of the structure shown.

Tests used:
[1] = test system: Staphylococcus aureus; assay: Antimicrobial activity against […] Staphylococcus aureus ATCC 43300 assessed as inhibition of microbial growth measured after 20 to 24 hrs incubation by CLSI method; assay type: functional; conditions: time 20-24 hrs
[2] = test system: Staphylococcus aureus; assay: Antimicrobial activity against […] Staphylococcus aureus ATCC 33591 assessed as inhibition of microbial growth measured after 20 to 24 hrs incubation by CLSI method; assay type: functional; conditions: time 20-24 hrs
[3] = test system: Staphylococcus aureus; assay: Antibacterial activity against […] Staphylococcus aureus ATCC 43300 assessed as inhibition of bacterial growth measured after 24 hrs by MH broth based assay; assay type: functional
[4] = test system: Staphylococcus aureus; assay: Antibacterial activity against […] Staphylococcus aureus ATCC 43300 assessed as inhibition of bacterial growth; assay type: functional
[5] = test system: Staphylococcus aureus; assay: Antibacterial activity against Staphylococcus aureus ATCC 25923 assessed as reduction in bacterial growth incubated for 24 hrs by serial dilution method; assay type: functional
[6] = test system: Staphylococcus aureus; assay: Antibacterial activity against […] Staphylococcus aureus ATCC 43300 assessed as reduction in microbial growth after 16 hrs by broth microdilution method; assay type: functional
[7] = test system: Staphylococcus aureus; assay: Antibacterial activity against […] Staphylococcus aureus BNCC 337371 assessed as bacterial growth inhibition incubated for 18 to 24 hrs by NCCLS based assay; assay type: functional; conditions: time 18-24 hrs
[8] = test system: Staphylococcus aureus; assay: Antibacterial activity against […] Staphylococcus aureus ATCC 25923 assessed as reduction in bacterial growth measured after 24 hrs by MH broth based assay; assay type: functional
[9] = test system: Staphylococcus epidermidis; assay: Antibacterial activity against […] Staphylococcus epidermidis ATCC 51625 assessed as inhibition of bacterial growth measured after 24 hrs by MH broth based assay; assay type: functional
[10] = test system: Staphylococcus aureus; assay: Antibacterial activity against Methicillin-resistant Staphylococcus aureus assessed as bacterial growth inhibition; assay type: functional
[11] = test system: Staphylococcus epidermidis; assay: Antibacterial activity against […] Staphylococcus epidermidis ATCC 35984 after 16 to 18 hrs by CLSI protocol based broth microdilution assay; assay type: functional; conditions: time 16-18 hrs
[12] = test system: Staphylococcus epidermidis; assay: Antibacterial activity against methicillin-sensitive Staphylococcus epidermidis ATCC 12228 assessed as reduction in bacterial growth incubated for 18 hrs by agar dilution method; assay type: functional
[13] = test system: Staphylococcus aureus; assay: Antibacterial activity against Methicillin-sensitive Staphylococcus aureus assessed as bacterial growth inhibition; assay type: functional
[14] = test system: Escherichia coli; assay: Antibacterial activity against Escherichia coli ATCC 25922 assessed as bacterial growth inhibition measured after 18 hrs by CLSI based method; assay type: functional
[15] = test system: Staphylococcus aureus; assay: Antimicrobial activity against methicillin-Staphylococcus aureus 29213 assessed as inhibition of microbial growth incubated for 24 hrs by broth-microdilution assay; assay type: functional
[16] = Cytotoxicity against mouse RAW264.7 cells assessed as reduction in cell viability incubated for 48 hrs by MTT assay; assay type: toxicity, cell-based
[17] = test system: Streptococcus pneumoniae; assay: Antibacterial activity against Streptococcus pneumoniae B1 assessed as reduction in bacterial growth; assay type: functional
[18] = test system: Staphylococcus aureus; assay: Antibacterial activity against […] Staphylococcus aureus ATCC 33592 assessed as bacterial growth inhibition; assay type: functional
[19] = test system: Staphylococcus; assay: Antimicrobial activity against methicillin-resistant coagulase negative Staphylococcus P1369 at 1 nmol relative to control; assay type: functional
[20] = test system: Staphylococcus aureus; assay: Antibacterial activity against methicillin-sensitive Staphylococcus aureus assessed as reduction in microbial growth; assay type: functional
[21] = test system: Staphylococcus aureus; assay: Antimicrobial activity against […] Staphylococcus aureus ATCC 33591 assessed as reduction in microbial growth incubated for 24 hrs by CLSI protocol based analysis; assay type: functional
[22] = test system: Staphylococcus aureus; assay: Antibacterial activity against […] Staphylococcus aureus ATCC 43300 assessed as reduction in bacterial growth by CLSI protocol based broth microdilution method; assay type: functional

C=C[C@]1(C)C[C@@H](OC(=O)CN2CCN(c3ccc(C(=O)/C=C/c4ccc([N+](=O)[O-])cc4)cc3)CC2)[C@]2(C)[C@H](C)CC[C@]3(CCC(=O)[C@H]32)[C@@H](C)[C@@H]1O
MIC [1]: 0.5 µg/mL
MIC [2]: 0.5 µg/mL

C=C[C@]1(C)C[C@@H](OC(=O)CSc2ccc(NC(=O)c3cccc(F)c3)cc2)[C@]2(C)[C@H](C)CC[C@]3(CCC(=O)[C@H]32)[C@@H](C)[C@@H]1O
MBC [3]: 0.03 µg/mL (≈ 0.0494 µM)
MIC [4]: 0.03 µg/mL (≈ 0.0494 µM)

C=C[C@]1(C)C[C@@H](OC(=O)CSc2ccc(NC(=O)c3ccc(F)cc3)cc2)[C@]2(C)[C@H](C)CC[C@]3(CCC(=O)[C@H]32)[C@@H](C)[C@@H]1O
MBC [3]: 0.03 µg/mL (≈ 0.0494 µM)
MIC [4]: 0.03 µg/mL (≈ 0.0494 µM)

C=C[C@]1(C)C[C@@H](OC(=O)CN2CCN(C(=O)CNC[C@H]3CN(c4ccc(Cl)cc4)C(=O)O3)CC2)[C@]2(C)[C@H](C)CC[C@]3(CCC(=O)[C@H]32)[C@@H](C)[C@@H]1O
MIC [5]: 0.008 µg/mL (≈ 0.0112 µM)

C=C[C@]1(C)C[C@@H](OC(=O)CSc2ccccc2NC(=O)c2cccc(F)c2)[C@]2(C)[C@H](C)CC[C@]3(CCC(=O)[C@H]32)[C@@H](C)[C@@H]1O
MIC [6]: 0.125 µg/mL

C=C[C@]1(C)C[C@@H](OC(=O)CSC2=NC(C)=C(C(=O)OC)C(C)N2)[C@]2(C)[C@H](C)CC[C@]3(CCC(=O)[C@H]32)[C@@H](C)[C@@H]1O (some centres undefined)
MIC [7]: 0.25 µg/mL (≈ 0.446 µM)
MIC [8]: 0.25 µg/mL (≈ 0.446 µM)
MIC [9]: 0.125 µg/mL (≈ 0.223 µM)

C=C[C@]1(C)C[C@@H](OC(=O)CSc2nc(C)c(C(=O)OC)c(C)n2)[C@]2(C)[C@H](C)CC[C@]3(CCC(=O)[C@H]32)[C@@H](C)[C@@H]1O
MIC [7]: 0.015 µg/mL (≈ 0.0268 µM)
MIC [8]: 0.016 µg/mL (≈ 0.0286 µM)
MIC [9]: 0.03 µg/mL (≈ 0.0537 µM)

C=C[C@]1(C)C[C@@H](OC(=O)CSc2nc(C)c(C(=O)OCC)c(C)n2)[C@]2(C)[C@H](C)CC[C@]3(CCC(=O)[C@H]32)[C@@H](C)[C@@H]1O
MIC [7]: 0.015 µg/mL (≈ 0.0262 µM)
MIC [8]: ≤ 0.016 µg/mL
MIC [9]: 0.015 µg/mL (≈ 0.0262 µM)

C=C[C@]1(C)C[C@@H](OC(=O)CSCc2csc(NC(=O)CN3CCCCC3)n2)[C@]2(C)[C@H](C)CC[C@]3(CCC(=O)[C@H]32)[C@@H](C)[C@@H]1O
MIC [10]: 0.063 µg/mL (≈ 0.0997 µM)
MIC [11]: 0.063 µg/mL (≈ 0.0997 µM)
MIC [12]: 0.063 µg/mL (≈ 0.0997 µM)
MIC [13]: 0.063 µg/mL (≈ 0.0997 µM)

C=C[C@]1(C)C[C@@H](OC(=O)CN2CCN(c3ccc(C4CC(c5ccccc5[N+](=O)[O-])=NN4)cc3)CC2)[C@]2(C)[C@H](C)CC[C@]3(CCC(=O)[C@H]32)[C@@H](C)[C@@H]1O (some centres undefined)
MIC [14]: 2 µg/mL (≈ 2.81 µM)
MIC [1]: 2 µg/mL
MIC [2]: 2 µg/mL

C=C[C@]1(C)C[C@@H](OC(=O)CSc2nnc(-c3cccs3)o2)[C@]2(C)[C@H](C)CC[C@]3(CCC(=O)[C@H]32)[C@@H](C)[C@@H]1O
MIC [15]: 0.125 µg/mL
IC50 at 48 h [16]: 17.9 µg/mL (≈ 32.8 µM)

C=C[C@]1(C)C[C@@H](OC(=O)CSc2nc(C)c(C(C)=O)c(C)n2)[C@]2(C)[C@H](C)CC[C@]3(CCC(=O)[C@H]32)[C@@H](C)[C@@H]1O
MIC [7]: 0.015 µg/mL (≈ 0.0276 µM)
MIC [8]: 0.016 µg/mL (≈ 0.0295 µM)
MIC [9]: 0.03 µg/mL (≈ 0.0553 µM)

C=C[C@]1(C)C[C@@H](OC(=O)CSc2ccc(NC(=O)c3ccco3)cc2)[C@]2(C)[C@H](C)CC[C@]3(CCC(=O)[C@H]32)[C@@H](C)[C@@H]1O
MBC [3]: 0.03 µg/mL (≈ 0.0517 µM)
MIC [4]: 0.015 µg/mL (≈ 0.0259 µM)

C=C[C@]1(C)C[C@@H](OC(=O)CSc2ccc(NC(=O)c3ccc(C#N)cc3)cc2)[C@]2(C)[C@H](C)CC[C@]3(CCC(=O)[C@H]32)[C@@H](C)[C@@H]1O
MBC [3]: 0.03 µg/mL (≈ 0.0488 µM)
MIC [4]: 0.015 µg/mL (≈ 0.0244 µM)

C=C[C@]1(C)C[C@@H](OC(=O)CSc2ccccc2N)[C@]2(C)[C@H](C)CC[C@]3(CCC(=O)[C@H]32)[C@@H](C)[C@@H]1O
MIC [17]: 0.016 µg/mL (≈ 0.0329 µM)
MIC [6]: 0.016 µg/mL
MIC [18]: 0.5 µg/mL (≈ 1.03 µM)

C=C[C@]1(C)C[C@@H](OC(=O)CS[C@@H]2CC[C@@H](N)C[C@H]2O)[C@]2(C)[C@H](C)CC[C@]3(CCC(=O)[C@H]32)[C@@H](C)[C@@H]1O [LEFAMULIN]
Activity [19]: 3.4%

C=C[C@]1(C)C[C@@H](OC(=O)CSc2cccc(NC(=O)Nc3ccc(C#N)cc3)c2)[C@]2(C)[C@H](C)CC[C@]3(CCC(=O)[C@H]32)[C@@H](C)[C@@H]1O
MIC [20]: 0.06 µg/mL

C=C[C@]1(C)C[C@@H](OC(=O)CN2CCN(c3ccc(C4CC(N)=NC=C4c4ccccc4[N+](=O)[O-])cc3)CC2)[C@]2(C)[C@H](C)CC[C@]3(CCC(=O)[C@H]32)[C@@H](C)[C@@H]1O (some centres undefined)
MIC [14]: 8 µg/mL (≈ 10.8 µM)
MIC [1]: 1 µg/mL
MIC [2]: 1 µg/mL

C=C[C@]1(C)C[C@@H](OC(=O)CSc2ccc(NC(=O)c3ccccc3F)cc2)[C@]2(C)[C@H](C)CC[C@]3(CCC(=O)[C@H]32)[C@@H](C)[C@@H]1O
MBC [3]: 0.062 µg/mL (≈ 0.102 µM)
MIC [4]: 0.03 µg/mL (≈ 0.0494 µM)

C=C[C@]1(C)C[C@@H](OC(=O)CSc2ccc(NC(=O)c3cccs3)cc2)[C@]2(C)[C@H](C)CC[C@]3(CCC(=O)[C@H]32)[C@@H](C)[C@@H]1O
MBC [3]: 0.03 µg/mL (≈ 0.0504 µM)
MIC [4]: 0.03 µg/mL (≈ 0.0504 µM)

C=C[C@]1(C)C[C@@H](OC(=O)CSc2nc3c(F)cccc3o2)[C@]2(C)[C@H](C)CC[C@]3(CCC(=O)[C@H]32)[C@@H](C)[C@@H]1O
MIC [21]: 0.125 µg/mL

C=C[C@]1(C)C[C@@H](OC(=O)CSCc2csc(NC(=O)CN3CCC[C@@H]3CO)n2)[C@]2(C)[C@H](C)CC[C@]3(CCC(=O)[C@H]32)[C@@H](C)[C@@H]1O
MIC [10]: 0.063 µg/mL (≈ 0.0972 µM)
MIC [22]: 0.063 µg/mL (≈ 0.0972 µM)
MIC [11]: 0.063 µg/mL (≈ 0.0972 µM)
MIC [12]: 0.063 µg/mL (≈ 0.0972 µM)
MIC [13]: 0.063 µg/mL (≈ 0.0972 µM)

C=C[C@]1(C)C[C@@H](OC(=O)CSC2=NC(C)=C(C(=O)OCC)C(C)N2)[C@]2(C)[C@H](C)CC[C@]3(CCC(=O)[C@H]32)[C@@H](C)[C@@H]1O (some centres undefined)
MIC [7]: 0.06 µg/mL (≈ 0.104 µM)
MIC [8]: 0.125 µg/mL (≈ 0.217 µM)
MIC [9]: 0.06 µg/mL (≈ 0.104 µM)

C=C[C@]1(C)C[C@@H](OC(=O)CSC2=NC(C)=C(C(C)=O)C(C)N2)[C@]2(C)[C@H](C)CC[C@]3(CCC(=O)[C@H]32)[C@@H](C)[C@@H]1O (some centres undefined)
MIC [7]: 0.125 µg/mL (≈ 0.229 µM)
MIC [8]: 0.25 µg/mL (≈ 0.459 µM)
MIC [9]: 0.25 µg/mL (≈ 0.459 µM)

C=C[C@]1(C)C[C@@H](OC(=O)CN2CCN(c3ccc(C(=O)/C=C/c4ccc(N)cc4)cc3)CC2)[C@]2(C)[C@H](C)CC[C@]3(CCC(=O)[C@H]32)[C@@H](C)[C@@H]1O
MIC [1]: 0.5 µg/mL
MIC [2]: 0.5 µg/mL

C=C[C@]1(C)C[C@@H](OC(=O)CSc2ccccc2NC(=O)c2ccccc2C)[C@]2(C)[C@H](C)CC[C@]3(CCC(=O)[C@H]32)[C@@H](C)[C@@H]1O
MIC [6]: 0.25 µg/mL

C=C[C@]1(C)C[C@@H](OC(=O)CSCc2csc(N)n2)[C@]2(C)[C@H](C)CC[C@]3(CCC(=O)[C@H]32)[C@@H](C)[C@@H]1O
MIC [10]: 0.063 µg/mL (≈ 0.124 µM)
MIC [11]: 0.063 µg/mL (≈ 0.124 µM)
MIC [12]: 0.063 µg/mL (≈ 0.124 µM)
MIC [13]: 0.063 µg/mL (≈ 0.124 µM)
